These results are taken from patent US11634452B2, “Compounds for treating neurodegenerative disorders” (ETHNODYNE, priority 2017, dated 2023).

For experiment [1], the system named is primary rat cortical neurons injured with Aβ1-42. The experiment in a line: Neuroprotective effect on an in vitro model of Alzheimer disease. It counts as cell-based. How it is done:
These peptides contribute to cerebrovascular lesions and are neurotoxic. This study investigated the neuroprotective effect of the plant extract of the invention on rat primary cortical cultures following exposure to Aβ1-42 in an in vitro AD model (Callizot. N., et al., 2013).
Rat cortical neurons were cultured as described in Example 6.
The cortical neurons were intoxicated with amyloid beta peptides solutions after 11 days of culture in presence of tested compound CR777.
Briefly, Aβ1-42 peptide (Batch: APN09080-1-1, Abcam, United Kingdom) was dissolved in the defined culture medium B27 mentioned above, devoid of serum, at an initial concentration of 40 μmol/L. This solution was gently agitated for 3 days at 37° C. in the dark and immediately used after being properly diluted in culture medium to the concentrations used (20 μM corresponding to 2 μM of AβO, measuring by WB, for survival, neurite network, tau phosphor and caspase 3 activation and 2.5 μM corresponding to 0.25 μM of AβO, for synapses evaluation).
CR777 was solved in DMSO at 10 mM and diluted in culture medium at different concentrations (see table below). The compound was tested on one primary cortical culture in 96 well plates (6 wells per conditions), and was pre-incubated 1 hour before Aβ1-42 application for 24 hours.
24 hours after intoxication, the cell culture supernatant was taken off and the cortical neurons were fixed by a cold solution of ethanol (95%) and acetic acid (5%) for 5 min at −20° C. • Plate 1: Immunostainning (MAP-2/Tau Phosphor)
After permeabilization with 0.1% of saponin, cells were incubated for 2 hours with a) a mouse monoclonal antibody anti phosphoT at dilution of 1/400 in PBS containing 1% fetal calf serum and 0.1% of saponin and b) a chicken polyclonal antibody anti microtubule-associated-protein 2 (MAP-2) at dilution of 1/1000 in PBS containing 1% fetal calf serum and 0.1% of saponin (this antibody stains specifically cell bodies and neurites, allowing study of neuronal cell survival and neurite network).
For each condition, 30 pictures/well (representative of ˜the all well area) were taken automatically using ImageXpress (Molecular Devices) with 20× magnification. All images were taken with the same conditions. Analysis were performed automatically by using Custom Module Editor (Molecular Devices).
The following endpoints were investigated per culture well: • The total neuron survival (MAP-2 staining), • The neurite network (MAP-2 staining) and • hyperphophorylation of T protein (pT) into neurons (pT/MAP-2). • Plate 2: Immunostainning (MAP-2/Caspase 3)
For each condition, 30 pictures/well (representative of ˜the all well area) were taken automatically using ImageXpress (Molecular Devices) with 20× magnification. All images were taken with the same conditions. Analysis were performed automatically by using Custom Module Editor (Molecular Devices). • The total number of caspase 3 positive neuron (overlapping caspase3/MAP-2) were investigated per culture well:
Data is expressed in percentage of control conditions (no injury, no compound=100%). All values are expressed as mean+/−SEM (standard error of the mean) from 6 wells per condition per culture. Neuro-Sys performed graphs and statistical analyses on the different conditions (ANOVA followed by Dunnett's test when allowed, using GraphPad Prism software version 5.0).

Experiment [2] has as its system primary rat cortical neurons injured with glutamate. The experiment in a line: Effect in rat primary cortical neurons after glutamate injury. It counts as cell-based. As to the method:
A., et al., 1999. J Neurosci 19: 2455-2463 and Callizot.
The medium was changed every 2 days. The cortical neurons were intoxicated with glutamate solution.
The following conditions were assessed: • Control (culture medium) • + glutamate (40 μM, 20 min) • + glutamate (40 μM, 20 min)+CR777 (at each concentration)

The mark [3] stands for this setting: CR777 1 nM to 1 μM added 1 h before Aβ1-42 (20 μM, 24 h).
Where [4] appears, read: CR777 all doses (1 nM to 1 μM), Aβ1-42 20 μM, 24 h.

Take `CC1=C(CO)C(=O)O[C@@H]([C@@H](C)[C@H]2CCC3C4C[C@H](SC[C@H](NC(=O)CC[C@@H](N)C(=O)O)C(=O)NCC(=O)O)[C@]5(O)[C@@H](O)C=CC(=O)[C@]5(C)C4CC[C@@]32C)C1` (stereo partly shown) [CR777]: the neurite network entry is “significant protective effect” in experiment [1] (setting [3]); “moderate neuroprotective effect” in experiment [2] (CR777 1 pmol/L to 10 μmol/L overall, glutamate 40 μM, 20 min); “significantly protected the neurite network” in experiment [2] (only the doses of 10, 100 pM and 1 μM, glutamate 40 μM, 20 min). Moreover, the neuron survival entry is on record as “significant protective effect” in experiment [1] (setting [3]); “significantly protected neurons from death” in experiment [2] (CR777 100 pM, added 1 h before glutamate (40 μM, 20 min) and let for 48 h); “full protection” in experiment [2] (CR777 from 1 nM up to 1 μM, glutamate 40 μM, 20 min). Further, in experiment [1] (setting [4]), the “caspase 3 activation” value was “decrease of caspase 3 activation”. For the same molecule, in experiment [1] (setting [4]), the tau hyperphosphorylation result is given as “significant decrease”. Further, the “concentration at which the maximal effect on neurite network was observed” value in experiment [2] (glutamate 40 μM, 20 min) came to 1 µM. Further, the “concentration at which the maximal effect on neuron survival was reached” value in experiment [2] (glutamate 40 μM, 20 min, dose dependent) was determined as 10 nM.
